From ChEMBL document CHEMBL1909294, “Translating clinical findings into knowledge in drug safety evaluation--drug induced liver injury prediction system (DILIps)” (PLoS Comput Biol, 2011)

How the values were obtained:
Hepatotoxicity [1] = system: Hepatotoxicity;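 on HepSE bilirubinemia: bilirubinemia hepatic side effect score drawn from the DILIps training data, a prediction system for drug-induced liver injury; call rule not given here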;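 on HepSE cholecystitis: Cholecystitis-related hepatic side effect score drawn from the DILIps (drug-induced liver injury prediction) training data set; call rule not given here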;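 on HepSE cirrhosis: cirrhosis hepatic side effect score taken from the DILIps (drug-induced liver injury prediction) training set; call rule not given here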; on HepSE hepatic failure: call rule not given here;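 on HepSE hepatomegaly: hepatic side effect score for hepatomegaly, taken from the training set of the DILIps drug-induced liver injury prediction system; call rule not given here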;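 on HepSE jaundice: Jaundice-related hepatic side-effect score drawn from the training data of the DILIps (drug-induced liver injury prediction system); call rule not given here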;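 on HepSE liver function tests abnormal: hepatic side effect score taken from the DILIps (drug-induced liver injury prediction system) training data, here covering abnormal liver function test findings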
Hepatotoxicity [2] = system: Hepatotoxicity; remark: listed apart in the source;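 on HepSE bilirubinemia: bilirubinemia hepatic side effect score drawn from the DILIps training data, a prediction system for drug-induced liver injury; call rule not given here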;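 on HepSE cholecystitis: Cholecystitis-related hepatic side effect score drawn from the DILIps (drug-induced liver injury prediction) training data set; call rule not given here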;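 on HepSE cirrhosis: cirrhosis hepatic side effect score taken from the DILIps (drug-induced liver injury prediction) training set; call rule not given here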; on HepSE hepatic failure: call rule not given here;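 on HepSE jaundice: Jaundice-related hepatic side-effect score drawn from the training data of the DILIps (drug-induced liver injury prediction system); call rule not given here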;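 on HepSE liver function tests abnormal: hepatic side effect score taken from the DILIps (drug-induced liver injury prediction system) training data, here covering abnormal liver function test findings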
Hepatotoxicity [3] = system: Hepatotoxicity; remark: listed apart in the source;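 on HepSE bilirubinemia: bilirubinemia hepatic side effect score drawn from the DILIps training data, a prediction system for drug-induced liver injury; call rule not given here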;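 on HepSE cholecystitis: Cholecystitis-related hepatic side effect score drawn from the DILIps (drug-induced liver injury prediction) training data set; call rule not given here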;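 on HepSE cirrhosis: cirrhosis hepatic side effect score taken from the DILIps (drug-induced liver injury prediction) training set; call rule not given here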; on HepSE hepatic failure: call rule not given here;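 on HepSE jaundice: Jaundice-related hepatic side-effect score drawn from the training data of the DILIps (drug-induced liver injury prediction system); call rule not given here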;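 on HepSE liver function tests abnormal: hepatic side effect score taken from the DILIps (drug-induced liver injury prediction system) training data, here covering abnormal liver function test findings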
Hepatotoxicity [4] = system: Hepatotoxicity; remark: listed apart in the source;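 on HepSE bilirubinemia: bilirubinemia hepatic side effect score drawn from the DILIps training data, a prediction system for drug-induced liver injury; call rule not given here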;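 on HepSE cholecystitis: Cholecystitis-related hepatic side effect score drawn from the DILIps (drug-induced liver injury prediction) training data set; call rule not given here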;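 on HepSE cirrhosis: cirrhosis hepatic side effect score taken from the DILIps (drug-induced liver injury prediction) training set; call rule not given here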; on HepSE hepatic failure: call rule not given here;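 on HepSE jaundice: Jaundice-related hepatic side-effect score drawn from the training data of the DILIps (drug-induced liver injury prediction system); call rule not given here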;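 on HepSE liver function tests abnormal: hepatic side effect score taken from the DILIps (drug-induced liver injury prediction system) training data, here covering abnormal liver function test findings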
Hepatotoxicity [5] = system: Hepatotoxicity; remark: listed apart in the source; on HepSE hepatic failure: call rule not given here
Hepatotoxicity [6] = system: Hepatotoxicity; remark: listed apart in the source; on HepSE hepatic failure: call rule not given here
Hepatotoxicity [7] = system: Hepatotoxicity; remark: listed apart in the source
Hepatotoxicity [8] = system: Hepatotoxicity; remark: listed apart in the source
Hepatotoxicity [9] = system: Hepatotoxicity; remark: listed apart in the source
Hepatotoxicity [10] = system: Hepatotoxicity; remark: listed apart in the source
Hepatotoxicity [11] = system: Hepatotoxicity; remark: listed apart in the source
Hepatotoxicity [12] = system: Hepatotoxicity; remark: listed apart in the source
Hepatotoxicity [13] = system: Hepatotoxicity; remark: listed apart in the source
Hepatotoxicity [14] = system: Hepatotoxicity; remark: listed apart in the source

SMILES	HepSE_jaundice (Hepatotoxicity [1])	HepSE_bilirubinemia (Hepatotoxicity [2])	HepSE_cirrhosis (Hepatotoxicity [3])	HepSE_hepatic failure (Hepatotoxicity [4])	HepSE_liver function tests abnormal (Hepatotoxicity [5])	HepSE_hepatitis (Hepatotoxicity [6])	HepSE_cholecystitis (Hepatotoxicity [7])	HepSE_hepatomegaly (Hepatotoxicity [8])	HepSE_liver disease (Hepatotoxicity [9])	HepSE_hepatic necrosis (Hepatotoxicity [10])	HepSE_elevated liver function tests (Hepatotoxicity [11])	HepSE_liver fatty (Hepatotoxicity [12])	HepSE_cholelithiasis (Hepatotoxicity [13])	HepSE_Combined Scores (Hepatotoxicity [14])	further results
COC(=O)C1=C(C)NC(C)=C(C(=O)OC(C)C)C1c1cccc2nonc12 (stereo not drawn) [ISRADIPINE]	0	0	0	0	0	0	0	0	0	0	1	0	0	1	
CNC(=C[N+](=O)[O-])NCCSCc1csc(CN(C)C)n1 [NIZATIDINE]	1	0	0	0	0	1	0	0	0	0	0	0	0	2	
Clc1ccc(CO/N=C(\Cn2ccnc2)c2ccc(Cl)cc2Cl)c(Cl)c1 [OXICONAZOLE]	0	0	0	0		0	0	0	0	0		0	0	0	HepSE_liver function tests abnormal (Hepatotoxicity [5]; Liver): 0; HepSE_elevated liver function tests (Hepatotoxicity [11]; Liver): 0
O=C1CN=C(c2ccccn2)c2cc(Br)ccc2N1 [BROMAZEPAM]	0	0	0	0	0	0	0	0	0	0	0	0	0	0	
CN1CCCCC1CCN1c2ccccc2Sc2ccc([S+](C)[O-])cc21 (stereo not drawn) [MESORIDAZINE]															HepSE_jaundice (Hepatotoxicity [1]; Liver): 1; HepSE_bilirubinemia (Hepatotoxicity [2]; Liver): 0; HepSE_cirrhosis (Hepatotoxicity [3]; Liver): 0; HepSE_hepatic failure (Hepatotoxicity [4]; Liver): 0; HepSE_liver function tests abnormal (Hepatotoxicity [5]; Liver): 0; HepSE_hepatitis (Hepatotoxicity [6]; Liver): 0; HepSE_cholecystitis (Hepatotoxicity [7]; Liver): 0; HepSE_hepatomegaly (Hepatotoxicity [8]; Liver): 0; HepSE_liver disease (Hepatotoxicity [9]; Liver): 0; HepSE_hepatic necrosis (Hepatotoxicity [10]; Liver): 0; HepSE_elevated liver function tests (Hepatotoxicity [11]; Liver): 0; HepSE_liver fatty (Hepatotoxicity [12]; Liver): 0; HepSE_cholelithiasis (Hepatotoxicity [13]; Liver): 0; HepSE_Combined Scores (Hepatotoxicity [14]; Liver): 1
Cn1nnc2c(C(N)=O)ncn2c1=O [TEMOZOLOMIDE]	0	0	0	0	0	0	0	0	0	0	0	0	0	0	
[Mg]	0	0	0	0	0	0	0	0	0	0	0	0	0	0	
